Laboratory results reported in publication PMC6278935 (Pharmacogenetics and genomics, 2012).
Substitutions are numbered along the chain they refer to. Names may count otherwise. “And” between values parts separate entries of the source, which are not always exact repeats. Identical values can stand only once. “Also recorded” adds a separate entry of the source. Marks after values point to notes of the source that are not given here.

What was measured:
UGT1A3 = UGT1A3 (Homo sapiens, UniProt P35503); test: Glucuronidation screen, UGT1A3-over-expressing cell homogenate; assay type: in vitro ADME; details: 160 μM CLZ or 320 μM dmCLZ; up to 1 mg cell homogenate; UV and MRM detection
UGT1A3, sequence (P35503 29-534): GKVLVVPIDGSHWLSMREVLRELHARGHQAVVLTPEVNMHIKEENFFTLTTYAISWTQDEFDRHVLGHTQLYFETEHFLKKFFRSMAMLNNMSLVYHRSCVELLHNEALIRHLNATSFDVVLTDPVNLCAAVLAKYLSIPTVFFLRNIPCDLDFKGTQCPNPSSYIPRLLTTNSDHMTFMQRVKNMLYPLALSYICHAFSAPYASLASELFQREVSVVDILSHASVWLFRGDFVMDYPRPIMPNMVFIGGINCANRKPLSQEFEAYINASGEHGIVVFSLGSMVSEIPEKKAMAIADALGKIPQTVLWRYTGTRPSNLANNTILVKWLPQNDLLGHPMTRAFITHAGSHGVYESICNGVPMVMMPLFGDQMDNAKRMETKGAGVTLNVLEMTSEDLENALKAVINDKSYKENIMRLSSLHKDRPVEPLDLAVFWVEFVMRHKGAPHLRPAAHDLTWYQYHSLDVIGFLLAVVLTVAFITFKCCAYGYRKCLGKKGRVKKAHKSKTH

UGT2B10 = UGT2B10 (Homo sapiens, UniProt P36537); test: Glucuronidation screen, UGT2B10-over-expressing cell homogenate; assay type: in vitro ADME; details: 160 μM CLZ or 320 μM dmCLZ; up to 1 mg cell homogenate; UV and MRM detection
UGT2B10, sequence (P36537 24-528): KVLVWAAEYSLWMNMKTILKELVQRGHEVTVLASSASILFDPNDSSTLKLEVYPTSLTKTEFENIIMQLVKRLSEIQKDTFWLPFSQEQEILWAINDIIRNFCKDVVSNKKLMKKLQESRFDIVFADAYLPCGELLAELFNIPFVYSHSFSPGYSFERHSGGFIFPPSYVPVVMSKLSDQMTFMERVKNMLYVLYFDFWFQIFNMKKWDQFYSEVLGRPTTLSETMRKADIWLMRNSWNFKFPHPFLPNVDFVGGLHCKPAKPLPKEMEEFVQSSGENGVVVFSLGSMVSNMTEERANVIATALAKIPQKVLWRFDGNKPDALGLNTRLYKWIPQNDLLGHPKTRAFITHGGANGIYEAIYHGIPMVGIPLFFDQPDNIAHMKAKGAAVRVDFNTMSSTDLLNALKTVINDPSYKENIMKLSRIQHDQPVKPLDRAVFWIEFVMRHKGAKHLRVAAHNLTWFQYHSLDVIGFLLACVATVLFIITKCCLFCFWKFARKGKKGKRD

UGT1A6 = UGT1A6 (Homo sapiens, UniProt P19224); test: Glucuronidation screen, UGT1A6-over-expressing cell homogenate; assay type: in vitro ADME; details: 160 μM CLZ or 320 μM dmCLZ; up to 1 mg cell homogenate
UGT1A6, sequence (P19224 27-532): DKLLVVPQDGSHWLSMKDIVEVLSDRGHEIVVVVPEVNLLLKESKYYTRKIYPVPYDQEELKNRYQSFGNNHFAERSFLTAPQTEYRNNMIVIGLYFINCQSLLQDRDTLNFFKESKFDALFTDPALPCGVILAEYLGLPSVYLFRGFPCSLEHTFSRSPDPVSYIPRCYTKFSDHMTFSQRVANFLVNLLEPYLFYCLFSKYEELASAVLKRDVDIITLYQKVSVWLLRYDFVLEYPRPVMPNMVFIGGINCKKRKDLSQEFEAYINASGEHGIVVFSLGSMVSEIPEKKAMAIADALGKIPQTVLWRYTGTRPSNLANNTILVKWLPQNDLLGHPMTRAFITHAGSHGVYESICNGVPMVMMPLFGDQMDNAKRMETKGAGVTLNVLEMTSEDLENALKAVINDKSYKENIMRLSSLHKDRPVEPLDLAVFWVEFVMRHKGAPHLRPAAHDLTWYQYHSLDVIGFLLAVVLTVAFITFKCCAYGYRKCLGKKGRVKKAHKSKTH

UGT1A7 = UGT1A7 (Homo sapiens, UniProt Q9HAW7); test: Glucuronidation screen, UGT1A7-over-expressing cell homogenate; assay type: in vitro ADME; details: 160 μM CLZ or 320 μM dmCLZ; up to 1 mg cell homogenate
UGT1A7, sequence (Q9HAW7 26-530): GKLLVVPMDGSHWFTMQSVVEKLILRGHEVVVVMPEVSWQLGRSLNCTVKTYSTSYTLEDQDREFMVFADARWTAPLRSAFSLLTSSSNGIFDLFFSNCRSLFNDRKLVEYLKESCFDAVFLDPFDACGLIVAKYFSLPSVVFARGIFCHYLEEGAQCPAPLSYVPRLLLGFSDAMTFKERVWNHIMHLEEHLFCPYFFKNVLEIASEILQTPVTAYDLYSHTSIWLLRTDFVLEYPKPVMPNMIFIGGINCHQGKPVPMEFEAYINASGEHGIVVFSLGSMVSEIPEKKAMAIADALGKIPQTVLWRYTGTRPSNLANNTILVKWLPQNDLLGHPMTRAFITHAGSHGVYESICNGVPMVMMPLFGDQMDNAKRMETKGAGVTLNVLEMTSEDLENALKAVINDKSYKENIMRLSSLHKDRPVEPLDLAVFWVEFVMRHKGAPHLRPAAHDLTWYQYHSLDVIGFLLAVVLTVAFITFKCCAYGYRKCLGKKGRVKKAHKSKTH

UGT1A8 = UGT1A8 (Homo sapiens, UniProt Q9HAW9); test: Glucuronidation screen, UGT1A8-over-expressing cell homogenate; assay type: in vitro ADME; details: 160 μM CLZ or 320 μM dmCLZ; up to 1 mg cell homogenate
UGT1A8, sequence (Q9HAW9 26-530): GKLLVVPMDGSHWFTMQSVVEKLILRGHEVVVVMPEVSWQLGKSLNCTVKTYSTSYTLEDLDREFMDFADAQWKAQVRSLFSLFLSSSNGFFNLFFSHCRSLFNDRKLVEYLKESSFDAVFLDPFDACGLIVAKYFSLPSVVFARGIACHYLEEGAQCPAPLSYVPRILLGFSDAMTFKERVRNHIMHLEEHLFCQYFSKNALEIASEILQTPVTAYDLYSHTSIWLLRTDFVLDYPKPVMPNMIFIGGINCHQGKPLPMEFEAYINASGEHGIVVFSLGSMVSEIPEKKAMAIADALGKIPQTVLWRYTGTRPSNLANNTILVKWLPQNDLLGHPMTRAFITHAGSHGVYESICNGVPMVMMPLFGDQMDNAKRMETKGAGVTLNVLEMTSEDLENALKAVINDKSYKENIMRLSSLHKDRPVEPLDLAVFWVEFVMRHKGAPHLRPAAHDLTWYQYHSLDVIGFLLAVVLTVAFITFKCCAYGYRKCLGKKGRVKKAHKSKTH

UGT1A9 = UGT1A9 (Homo sapiens, UniProt O60656); test: Glucuronidation screen, UGT1A9-over-expressing cell homogenate; assay type: in vitro ADME; details: 160 μM CLZ or 320 μM dmCLZ; up to 1 mg cell homogenate
UGT1A9, sequence (O60656 26-530): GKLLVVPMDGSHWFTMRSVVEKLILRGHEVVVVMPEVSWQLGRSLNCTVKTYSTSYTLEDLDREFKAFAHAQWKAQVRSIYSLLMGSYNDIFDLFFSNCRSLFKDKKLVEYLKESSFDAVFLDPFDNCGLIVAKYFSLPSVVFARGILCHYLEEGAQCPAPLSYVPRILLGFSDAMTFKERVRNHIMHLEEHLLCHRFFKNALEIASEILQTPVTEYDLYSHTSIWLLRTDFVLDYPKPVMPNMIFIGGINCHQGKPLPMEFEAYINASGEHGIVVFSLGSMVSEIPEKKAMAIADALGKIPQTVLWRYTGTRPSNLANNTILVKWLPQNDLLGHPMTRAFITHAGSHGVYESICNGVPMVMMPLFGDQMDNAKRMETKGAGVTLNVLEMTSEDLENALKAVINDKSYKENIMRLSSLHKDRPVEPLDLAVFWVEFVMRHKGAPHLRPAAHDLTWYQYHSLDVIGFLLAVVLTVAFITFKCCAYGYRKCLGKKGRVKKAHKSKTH

UGT1A10 = UGT1A10 (Homo sapiens, UniProt Q9HAW8); test: Glucuronidation screen, UGT1A10-over-expressing cell homogenate; assay type: in vitro ADME; details: 160 μM CLZ or 320 μM dmCLZ; up to 1 mg cell homogenate
UGT2B4 = UGT2B4 (Homo sapiens, UniProt P06133); test: Glucuronidation screen, UGT2B4-over-expressing cell homogenate; assay type: in vitro ADME; details: 160 μM CLZ or 320 μM dmCLZ; up to 1 mg cell homogenate
UGT2B7 = UGT2B7 (Homo sapiens, UniProt P16662); test: Glucuronidation screen, UGT2B7-over-expressing cell homogenate; assay type: in vitro ADME; details: 160 μM CLZ or 320 μM dmCLZ; up to 1 mg cell homogenate
UGT2B11 = UGT2B11 (Homo sapiens, UniProt O75310); test: Glucuronidation screen, UGT2B11-over-expressing cell homogenate; assay type: in vitro ADME; details: 160 μM CLZ or 320 μM dmCLZ; up to 1 mg cell homogenate
UGT2B11, sequence (O75310 22-529): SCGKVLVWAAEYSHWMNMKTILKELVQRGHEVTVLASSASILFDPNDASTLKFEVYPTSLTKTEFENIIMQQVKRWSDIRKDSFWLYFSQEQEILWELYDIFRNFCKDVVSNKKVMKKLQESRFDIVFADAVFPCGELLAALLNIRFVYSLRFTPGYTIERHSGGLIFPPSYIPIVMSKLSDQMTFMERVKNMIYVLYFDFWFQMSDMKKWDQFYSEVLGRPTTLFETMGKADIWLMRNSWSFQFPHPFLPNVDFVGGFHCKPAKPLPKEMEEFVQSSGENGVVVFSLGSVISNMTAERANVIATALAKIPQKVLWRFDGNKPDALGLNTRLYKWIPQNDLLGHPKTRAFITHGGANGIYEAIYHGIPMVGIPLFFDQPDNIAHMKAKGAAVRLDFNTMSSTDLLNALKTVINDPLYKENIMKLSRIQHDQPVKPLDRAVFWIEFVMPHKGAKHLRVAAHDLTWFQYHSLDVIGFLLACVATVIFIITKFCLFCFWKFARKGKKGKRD

UGT2B15 = UGT2B15 (Homo sapiens, UniProt P54855); test: Glucuronidation screen, UGT2B15-over-expressing cell homogenate; assay type: in vitro ADME; details: 160 μM CLZ or 320 μM dmCLZ; up to 1 mg cell homogenate
UGT2B15, sequence (P54855 24-530): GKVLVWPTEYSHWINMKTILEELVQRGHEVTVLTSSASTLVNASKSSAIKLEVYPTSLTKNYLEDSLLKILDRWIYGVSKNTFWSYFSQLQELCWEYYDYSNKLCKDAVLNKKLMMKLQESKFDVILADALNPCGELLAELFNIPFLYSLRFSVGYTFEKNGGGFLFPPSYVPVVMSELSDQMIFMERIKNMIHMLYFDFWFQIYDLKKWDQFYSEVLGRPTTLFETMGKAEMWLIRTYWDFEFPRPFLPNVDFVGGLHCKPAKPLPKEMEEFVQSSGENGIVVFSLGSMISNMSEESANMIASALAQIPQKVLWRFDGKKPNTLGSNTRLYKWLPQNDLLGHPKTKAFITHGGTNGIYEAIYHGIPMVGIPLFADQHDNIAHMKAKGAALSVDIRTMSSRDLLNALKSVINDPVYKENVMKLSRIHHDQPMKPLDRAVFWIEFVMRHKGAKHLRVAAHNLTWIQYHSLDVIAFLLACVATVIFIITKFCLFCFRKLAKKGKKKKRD

UGT2B17 = UGT2B17 (Homo sapiens, UniProt O75795); test: Glucuronidation screen, UGT2B17-over-expressing cell homogenate; assay type: in vitro ADME; details: 160 μM CLZ or 320 μM dmCLZ; up to 1 mg cell homogenate
UGT2B17, sequence (O75795 24-530): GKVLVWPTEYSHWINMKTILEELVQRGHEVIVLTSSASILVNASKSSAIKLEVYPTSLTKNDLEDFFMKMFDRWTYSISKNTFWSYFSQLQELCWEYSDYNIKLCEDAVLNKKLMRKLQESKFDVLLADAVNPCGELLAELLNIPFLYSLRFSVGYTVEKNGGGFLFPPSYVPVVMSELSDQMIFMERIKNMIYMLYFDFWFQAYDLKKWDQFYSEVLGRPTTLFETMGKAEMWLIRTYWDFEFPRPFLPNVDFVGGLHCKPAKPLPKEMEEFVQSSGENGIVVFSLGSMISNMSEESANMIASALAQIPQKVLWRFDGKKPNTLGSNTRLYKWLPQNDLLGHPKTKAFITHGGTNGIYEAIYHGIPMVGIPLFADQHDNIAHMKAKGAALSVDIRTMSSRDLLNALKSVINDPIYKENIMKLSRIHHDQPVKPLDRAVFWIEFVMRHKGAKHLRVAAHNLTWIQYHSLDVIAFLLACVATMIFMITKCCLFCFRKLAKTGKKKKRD

[1] = cited from earlier work
UGT1A1 = molecular target: T1, UGT1A1 (Homo sapiens, UniProt P22309); test: Glucuronidation by UGT1A1-over-expressing HEK 293 cell homogenate; details: 160 μM CLZ or 320 μM dmCLZ; up to 1 mg cell homogenate; UV and MRM detection
T1 sequence (P22309 26-533): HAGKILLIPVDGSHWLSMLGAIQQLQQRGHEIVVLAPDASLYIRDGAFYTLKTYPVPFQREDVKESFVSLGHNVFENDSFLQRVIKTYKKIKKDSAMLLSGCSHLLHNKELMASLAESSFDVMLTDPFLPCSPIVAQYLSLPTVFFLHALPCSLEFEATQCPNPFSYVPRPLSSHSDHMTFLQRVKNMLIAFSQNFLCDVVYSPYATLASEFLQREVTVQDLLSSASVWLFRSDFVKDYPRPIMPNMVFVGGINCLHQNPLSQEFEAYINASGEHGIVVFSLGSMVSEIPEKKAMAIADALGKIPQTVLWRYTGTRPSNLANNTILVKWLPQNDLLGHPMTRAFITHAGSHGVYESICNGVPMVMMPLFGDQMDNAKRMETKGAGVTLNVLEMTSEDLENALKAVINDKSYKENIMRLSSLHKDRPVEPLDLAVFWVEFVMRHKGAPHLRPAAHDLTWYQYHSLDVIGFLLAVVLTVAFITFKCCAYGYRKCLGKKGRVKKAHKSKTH

UGT1A4^24Pro/48Leu = molecular target: T2, UGT1A4^24Pro/48Leu (Homo sapiens, UniProt P22310); test: Glucuronidation by wild-type UGT1A4-over-expressing HEK 293 cell homogenate; details: 160 μM CLZ or 320 μM dmCLZ; up to 1 mg cell homogenate; UV and MRM detection
T2 sequence (P22310 29-534): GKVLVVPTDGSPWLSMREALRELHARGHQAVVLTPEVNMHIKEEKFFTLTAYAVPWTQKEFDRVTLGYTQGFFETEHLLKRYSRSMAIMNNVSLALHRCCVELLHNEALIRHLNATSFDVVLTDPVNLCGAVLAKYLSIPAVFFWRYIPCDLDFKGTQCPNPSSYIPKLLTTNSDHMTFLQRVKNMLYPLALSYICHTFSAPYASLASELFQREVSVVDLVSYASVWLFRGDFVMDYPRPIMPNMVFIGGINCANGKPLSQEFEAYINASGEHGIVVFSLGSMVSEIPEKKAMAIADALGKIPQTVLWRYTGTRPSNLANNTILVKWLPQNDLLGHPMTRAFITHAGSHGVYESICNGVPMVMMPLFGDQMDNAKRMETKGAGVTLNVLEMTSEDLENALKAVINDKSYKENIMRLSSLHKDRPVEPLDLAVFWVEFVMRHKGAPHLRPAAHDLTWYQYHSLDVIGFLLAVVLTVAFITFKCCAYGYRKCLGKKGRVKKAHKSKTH

UGT1A4^24Thr/48Leu = molecular target: T3, UGT1A4^24Thr/48Leu (Homo sapiens, UniProt P22310); test: Glucuronidation by UGT1A4 24Thr/48Leu variant-over-expressing cell homogenate; details: vs wild-type UGT1A4^24Pro/48Leu
T3 sequence (P22310 29-534): T2 sequence (P22310 29-534)

UGT1A4^24Pro/48Val = molecular target: T4, UGT1A4^24Pro/48Val (Homo sapiens, UniProt P22310, L48V); test: Glucuronidation by UGT1A4 24Pro/48Val variant-over-expressing cell homogenate
T4 sequence (P22310 29-534 L48V): T2 sequence (P22310 29-534) with L20V

UGT1A4 = molecular target: T5, UGT1A4 (Homo sapiens, UniProt P22310); test: Inhibition of glucuronide formation in UGT1A4-over-expressing cell homogenates; assay type: biochemical; details: 10 μM hecogenin
T5 sequence (P22310 29-534): T2 sequence (P22310 29-534)

[2] = test system: Human liver microsomes (HLM); assay type: biochemical; details: 10 μM hecogenin; 160 μM CLZ; HLM
[3] = substrate: CN1CCN(C2=Nc3cc(Cl)ccc3Nc3ccccc32)CC1; test: cells, lysate or membranes named; details: other: substrate CLZ
[4] = substrate: Clc1ccc2c(c1)N=C(N1CCNCC1)c1ccccc1N2; test: cells, lysate or membranes named; details: other: substrate dmCLZ

With `CN1CCN(C2=Nc3cc(Cl)ccc3Nc3ccccc32)CC1` [CLZ, Clozapine, reference compound] the “detectable glucuronidation activity (screen)” value (UGT1A3) was “detectable levels of activity; also recorded: barely above the limits of detection”, the “detectable glucuronidation activity (screen)” value (UGT2B10) was “detectable levels of activity; also recorded: barely above the limits of detection” and the “detectable glucuronidation activity (screen)” value (UGT1A6) was “None”. For the same molecule, the “detectable glucuronidation activity (screen)” value (UGT1A7) was “None”, the “detectable glucuronidation activity (screen)” value (UGT1A8) was “None” and the “detectable glucuronidation activity (screen)” value (UGT1A9) was “None”. For the same molecule, the “detectable glucuronidation activity (screen)” value (UGT1A10) was “None”, the “detectable glucuronidation activity (screen)” value (UGT2B4) was “None” and the “detectable glucuronidation activity (screen)” value (UGT2B7) was “None”. The “detectable glucuronidation activity (screen)” value (UGT2B11) was “None”, the “detectable glucuronidation activity (screen)” value (UGT2B15) was “None” and the “detectable glucuronidation activity (screen)” value (UGT2B17) was “None”. The “administered dose being metabolized” value [1] was 97%, the “patients who fail to respond to CLZ treatment despite adequate dosing” value [1] was “Approximately 30%” and the “CLZ and dmCLZ glucuronides, share of all recovered metabolites in urine and bile” value ([1]; human subjects taking CLZ) was 33–38%. For the same molecule, the “plasma concentrations (inter-individual variability for a given dose of CLZ)” value ([1]; patients) was 3 to 1507 ng/mL, the “detectable glucuronidation activity (screen)” value (UGT1A1) was “detectable levels of activity” and the “detectable glucuronidation activity (screen)” value (UGT1A4^24Pro/48Leu) was “detectable levels of activity”. The “decrease in Vmax, CLZ-5-N-glucuronide formation” value (UGT1A4^24Thr/48Leu) was 21%, the “lower Vmax/KM, CLZ-5-N-glucuronide formation” value (UGT1A4^24Thr/48Leu) was 20% and the “decrease in KM, CLZ-5-N-glucuronide formation” value (UGT1A4^24Pro/48Val; vs UGT1A4^24Thr/48Leu variant) was 56%. For the same molecule, the “decrease in KM, CLZ-5-N-glucuronide formation” value (UGT1A4^24Pro/48Val; vs wild-type UGT1A4^24Pro/48Leu) was 58%.

With hecogenin the “inhibition of CLZ-5-N-glucuronide formation” value (UGT1A4; 160 μM CLZ) was 77%, the “inhibition of CLZ-N^+-glucuronide formation” value (UGT1A4; 160 μM CLZ) was 82% and the “inhibition of dmCLZ-5-N-glucuronide formation” value (UGT1A4; 320 μM dmCLZ) was 81%. For the same molecule, the “inhibition of CLZ-5-N-glucuronide formation” value [2] was 89 ± 3% and the “inhibition of CLZ-N^+-glucuronide formation” value [2] was 46 ± 5%.

B1: UGT1A4^24Thr/48Leu (Homo sapiens) (protein)
chain: MARGLQVPLPRLATGLLLLLSVQPWAESGKVLVVPTDGSPWLSMREALRELHARGHQAVVLTPEVNMHIKEEKFFTLTAYAVPWTQKEFDRVTLGYTQGFFETEHLLKRYSRSMAIMNNVSLALHRCCVELLHNEALIRHLNATSFDVVLTDPVNLCGAVLAKYLSIPAVFFWRYIPCDLDFKGTQCPNPSSYIPKLLTTNSDHMTFLQRVKNMLYPLALSYICHTFSAPYASLASELFQREVSVVDLVSYASVWLFRGDFVMDYPRPIMPNMVFIGGINCANGKPLSQEFEAYINASGEHGIVVFSLGSMVSEIPEKKAMAIADALGKIPQTVLWRYTGTRPSNLANNTILVKWLPQNDLLGHPMTRAFITHAGSHGVYESICNGVPMVMMPLFGDQMDNAKRMETKGAGVTLNVLEMTSEDLENALKAVINDKSYKENIMRLSSLHKDRPVEPLDLAVFWVEFVMRHKGAPHLRPAAHDLTWYQYHSLDVIGFLLAVVLTVAFITFKCCAYGYRKCLGKKGRVKKAHKSKTH
For B1, the Km [3] was 167 ± 19^d μM and 459 ± 23^e μM, the Km [4] was 440 ± 45^b μM and the Vmax [4] was 0.0064 ± 0.0009 µmol/min/mg. The Vmax/Km [4] was 15 ± 1.5 µL/min/mg.

B2: UGT1A4^24Pro/48Leu (Homo sapiens) (protein)
chain: T2 sequence (P22310 29-534)
B2 showed a Km [4] of 379 ± 46 µM, a Vmax [4] of 0.01 µmol/min/mg and a Vmax/Km [4] of 28 µL/min/mg.

B3: UGT1A4^24Pro/48Val (Homo sapiens; L48V) (protein)
chain: T2 sequence (P22310 29-534) with L20V
With B3 the Km [4] was 173 ± 22^e μM, the Vmax [4] was 0.017 ± 0.0013 µmol/min/mg and the Vmax/Km [4] was 96 ± 8 µL/min/mg.

B4: UGT1A1 (Homo sapiens) (protein)
chain: T1 sequence (P22309 26-533)
In the case of B4, the Km [3] is reported as 53 ± 2^a,b μM, the Vmax [3] is reported as 0.00086 ± 2e-05 µmol/min/mg and the Vmax/Km [3] is reported as 17 ± 0.6 µL/min/mg.
